{"source": "patent US10324099B2", "about": "“Ultrasensitive androgen receptor bioassay” (The Regents of the University of California, priority 2014, dated 2019)", "test_system": "mutant AR-YFP", "assay": "YFP fluorescence in reporter cell nuclei at saturating target hormone", "assay_type": "cell-based", "details": "absence of urine", "procedure": "For example, YFP fluorescence measured in the cell nuclei of urine-treated reporter cells represents both the effects of target hormone-bound nuclear-translocated mutant AR-YFP, and also the independent effects of urine on the fluorescence properties of YFP. […] Because the effect varies among samples, two aliquots of each sample are required. […] A second sample aliquot is assayed using the methods of the invention. The correction factor is used to subtract the percentage increase from the YFP fluorescence signal measurement of the second aliquot. The corrected YFP fluorescence of the sample then is used to extrapolate the target hormone levels from a standard curve."}
{"smiles": "C[C@]12CC[C@H]3[C@@H](CCC4=CC(=O)CC[C@@]43C)[C@@H]1CC[C@@H]2O", "note": "[testosterone]", "values": [{"measurement": "saturating level (YFP fluorescence in nuclei reaches a maximum)", "result": "about 10^−7 M"}]}
